Results: US20230167073A1 (Teijin Pharma Limited, priority 2020, published 2023)

Legend:
Human TRPC6 [1] = target: T1, Human TRPC6 (Homo sapiens, UniProt Q9Y210); assay: Evaluation of TRPC6 channel inhibitory activity (2), HEK293 cells with stably introduced human TRPC6, OAG stimulation, FLIPR tetra (Compound Nos. 1293 to 1405); type: cell-based; settings: HEK293 cells with stably introduced human TRPC6, OAG 50 μM/0.5% DMSO, read-out: Inhibitory activity (pIC50 class) (converted)
T1 construct: expressed in transfected cells
T1 sequence (Q9Y210 1-931): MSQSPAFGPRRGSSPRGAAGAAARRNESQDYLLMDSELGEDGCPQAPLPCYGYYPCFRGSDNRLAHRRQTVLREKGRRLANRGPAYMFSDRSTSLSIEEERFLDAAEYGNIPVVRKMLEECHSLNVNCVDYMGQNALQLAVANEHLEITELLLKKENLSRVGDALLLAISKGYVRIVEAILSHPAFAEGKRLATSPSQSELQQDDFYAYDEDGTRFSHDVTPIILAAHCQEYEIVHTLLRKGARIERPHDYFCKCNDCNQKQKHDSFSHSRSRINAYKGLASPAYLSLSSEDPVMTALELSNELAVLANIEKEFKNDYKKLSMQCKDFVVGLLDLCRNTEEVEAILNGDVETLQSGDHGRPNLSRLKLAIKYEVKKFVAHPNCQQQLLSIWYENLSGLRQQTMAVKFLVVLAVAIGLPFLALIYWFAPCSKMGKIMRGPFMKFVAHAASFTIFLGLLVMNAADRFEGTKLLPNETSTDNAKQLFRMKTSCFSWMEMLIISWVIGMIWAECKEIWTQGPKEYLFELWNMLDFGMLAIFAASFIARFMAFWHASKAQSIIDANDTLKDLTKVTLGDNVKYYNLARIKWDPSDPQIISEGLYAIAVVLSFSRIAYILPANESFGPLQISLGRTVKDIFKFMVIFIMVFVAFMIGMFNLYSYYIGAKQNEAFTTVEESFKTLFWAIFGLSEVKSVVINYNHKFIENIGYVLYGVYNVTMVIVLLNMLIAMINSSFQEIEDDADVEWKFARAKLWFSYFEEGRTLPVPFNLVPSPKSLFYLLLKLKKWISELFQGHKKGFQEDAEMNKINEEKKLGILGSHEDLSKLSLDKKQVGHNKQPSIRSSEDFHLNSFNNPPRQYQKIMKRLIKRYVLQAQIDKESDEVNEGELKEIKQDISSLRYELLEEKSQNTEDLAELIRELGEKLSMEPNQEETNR
Protocol: Evaluation of TRPC6 Channel Inhibitory Activity (2) (Compound Nos. 1293 to 1405)
The activity of the TRPC6 inhibitor was measured by stimulating HEK293 cells, in which human TRPC6 was stably introduced, with OAG (1-Oleoyl-2-acetyl-sn-glycerol, Miliipore Sigma, 06754), using the FLIPR tetra system. The cells were proliferated in a humid environment at 37° C. 5% CO2 using a growth medium (DMEM (Dulbecco's Modified Eagle's Medium) high glucose containing 10% fetal bovine serum, 1×PSGlu (penicillin-streptomycin glutamine), 1×NEAA (Non-essential amino acid), sodium pyruvate and 200 μg/mL hyglomycin. For cell subculture, the cells were proliferated to 70-90% confluence, and gently washed twice with PBS (phosphate-buffered saline) free of calcium and magnesium after removing the medium. Then, the cells were incubated at 37° C. for 5 minutes after adding trypsin (3 mL), peeled off by tapping the flask at the base of the hand, 7 mL of growth medium was added to inactivate trypsin, and then the cells were resuspended. Usually, the cells were separated every 2-3 days to become a cell density of ⅕. The day before evaluation, the cells were seeded in a poly-D-lysine (PDL) coated 384-well plate using a multi-channel pipette or multidrop at a cell density of 1.0-1.5×10^4 cells/25 μL/well. After culturing overnight in a PDL-coated 384 Blackwell plate, a fluorescent dye buffer was added first to the cells and the cells were cultured at room temperature for 90-120 minutes. For preparing 10 mL of fluorescent dye buffer, 9 mL of assay buffer, 1 mL of 10×PBX signal enhancer, and 10 μL of calcium indicator were mixed. Cells treated with the compounds of each level 25 minutes before the stimulation with OAG of TRPC6 agonist were incubated. OAG solution was prepared by adding OAG to assay buffer (Ca ringer solution base: 10 mM HEPES (4-(2-hydroxyethyl)-1-piperazine-ethanesulfonic acid), 4 mM MgCl2, 120 mM NaCl, 5 mM KCl, pH=7.2 (25° C.)+0.1% BSA+2 mM CaCl2)) to give an OAG concentration of 0.2 mM/2% DMSO. The final concentration of OAG added to the cells is 50 μM/0.5% DMSO. A volume of 12.5 μL of OAG solution was added, and activation of TRPC6 channel was measured using the FLIPR tetra system assaying the change in intracellular calcium level as an index. The 180 seconds imaging frame was defined as the background signal, and the subtraction of the background signal from the raw data was used as the fluorescence peak signal. Each fluorescence peak signal is standardized using an OAG-induced signal and buffer-induced signal as 100% and 0%, respectively. The inhibition rate obtained by plotting the peak signal after the addition of the compounds of each level was analyzed by a four-parameter logistic regression to quantify the inhibition rate in the logarithm of the inverse of the effective concentration which gives a 50% inhibition rate (pIC50). The intensity was expressed by the above-mentioned symbols (+, ++, +++).

Human TRPC6 [2] = target: T1, Human TRPC6; assay: Evaluation of TRPC6 channel inhibitory activity (1), FLIPR Calcium 5 Assay Kit, OAG stimulation (Compound Nos. 1-1293); type: cell-based; settings: Human TRPC6 stably-expressing cells, OAG 30 μM, FLIPR Calcium 5 Assay Kit; read-out: Inhibitory activity (pIC50 class) (converted)
Outline: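 Stable human TRPC6 line; fluorescent Ca2+ dye loading, then 20 min compound exposure before 30 μM OAG trigger. Peak-minus-baseline signal converted to % inhibition against untreated and unstimulated wells; potency given as pIC50 band.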

Row | IC50 (Human TRPC6 [1]) | IC50 (Human TRPC6 [2]) | SMILES
1 | < 10 nM |  | Cn1nc(C2CCOCC2)cc1Oc1cc(Cl)ccc1-c1ncc([C@@H](F)CN)cn1 [compound 1360, (2R)-2-[2-[4-chloro-2-[2-methyl-5-(oxan-4-yl)pyrazol-3-yl]oxyphenyl]pyrimidin-5-yl]-2-fluoroethanamine]
2 | < 10 nM |  | Cn1nc(-c2ccccn2)cc1Oc1cc(C#N)ccc1-c1cc(Cl)c(CN)cn1 [compound 1316, 4-[5-(aminomethyl)-4-chloropyridin-2-yl]-3-(2-methyl-5-pyridin-2-ylpyrazol-3-yl)oxybenzonitrile]
3 | < 10 nM |  | Cn1nc(C2CCOCC2)cc1Oc1cc(C#N)ccc1-c1ccc([C@@H](F)CN)cn1 [compound 1368, 4-[5-[(1R)-2-amino-1-fluoroethyl]pyridin-2-yl]-3-[2-methyl-5-(oxan-4-yl)pyrazol-3-yl]oxybenzonitrile]
4 | 10 to 1000 nM |  | Cn1nc(C2CCOCC2)cc1Oc1cc(C#N)ccc1-c1ncc([C@@H](F)CN)cn1 [compound 1313, 4-[5-[(1R)-2-amino-1-fluoroethyl]pyrimidin-2-yl]-3-[2-methyl-5-(oxan-4-yl)pyrazol-3-yl]oxybenzonitrile]
5 | 10 to 1000 nM |  | Cc1nc(Oc2cc(Cl)ccc2-c2ncc(CCN)cn2)cc(N2CCOCC2)n1 [compound 1378, 2-[2-[4-chloro-2-(2-methyl-6-morpholin-4-ylpyrimidin-4-yl)oxyphenyl]pyrimidin-5-yl]ethanamine]
6 | < 10 nM |  | Cn1nc(C2CCOCC2)cc1Oc1cc(Cl)cnc1-c1ccc([C@H](F)CN)cn1 [compound 1373, (2S)-2-[6-[5-chloro-3-[2-methyl-5-(oxan-4-yl)pyrazol-3-yl]oxypyridin-2-yl]pyridin-3-yl]-2-fluoroethanamine]
7 | 10 to 1000 nM |  | Cn1nc(-c2ccccn2)cc1Oc1cc(Cl)ccc1-c1ncc([C@H](O)CN)cn1 [compound 1358, (1S)-2-amino-1-[2-[4-chloro-2-(2-methyl-5-pyridin-2-ylpyrazol-3-yl)oxyphenyl]pyrimidin-5-yl]ethanol]
8 | 10 to 1000 nM |  | Cn1nc(C2CCOCC2)cc1Oc1cc(Cl)ccc1-c1ccc([C@H](F)CN)cn1 [compound 1386, (2S)-2-[6-[4-chloro-2-[2-methyl-5-(oxan-4-yl)pyrazol-3-yl]oxyphenyl]pyridin-3-yl]-2-fluoroethanamine]
9 | 10 to 1000 nM |  | Cc1cc(Oc2cc(Cl)ccc2-c2ccc([C@@H](F)CN)cn2)cc(N2CCOCC2)n1 [compound 1394, (2R)-2-[6-[4-chloro-2-(2-methyl-6-morpholin-4-ylpyridin-4-yl)oxyphenyl]pyridin-3-yl]-2-fluoroethanamine]
10 | 10 to 1000 nM |  | Cn1nc(-c2ccccn2)cc1Oc1cc(F)ccc1-c1ncc(CN)cn1 [compound 1341, [2-[4-fluoro-2-(2-methyl-5-pyridin-2-ylpyrazol-3-yl)oxyphenyl]pyrimidin-5-yl]methanamine]
11 | 10 to 1000 nM |  | COc1nc(-c2ccc(C#N)cc2Oc2cc(-c3ccccn3)nn2C)ncc1[C@@H](O)CN [compound 1327, 4-[5-[(1R)-2-amino-1-hydroxyethyl]-4-methoxypyrimidin-2-yl]-3-(2-methyl-5-pyridin-2-ylpyrazol-3-yl)oxybenzonitrile]
12 | > 1000 nM |  | Cc1cc(Oc2nc(Cl)ccc2-c2ccc(CCN)cc2)cc(N2CCOCC2)n1 [compound 1329, 2-[4-[6-chloro-2-(2-methyl-6-morpholin-4-ylpyridin-4-yl)oxypyridin-3-yl]phenyl]ethanamine]
13 | < 10 nM |  | Cc1cc(Oc2cc(Cl)cnc2-c2ccc([C@H](F)CN)cn2)cc(N2CCOCC2)n1 [compound 1398]
14 | 10 to 1000 nM |  | Cn1nc(-c2ccccn2)cc1Oc1cc(C#N)ccc1-c1ncc2c(n1)CNC2 [compound 1393, 4-(6,7-dihydro-5H-pyrrolo[3,4-d]pyrimidin-2-yl)-3-(2-methyl-5-pyridin-2-ylpyrazol-3-yl)oxybenzonitrile]
15 | < 10 nM |  | Cn1nc(-c2ccccn2)cc1Oc1cc(C#N)ccc1-c1ccc(CN)c(Cl)n1 [compound 1334, 4-[5-(aminomethyl)-6-chloropyridin-2-yl]-3-(2-methyl-5-pyridin-2-ylpyrazol-3-yl)oxybenzonitrile]
16 | 10 to 1000 nM |  | Cn1nc([C@H]2CCOC2)cc1Oc1cc(Cl)ccc1-c1ncc([C@@H](F)CN)cn1 [compound 1352, (2R)-2-[2-[4-chloro-2-[2-methyl-5-[(3R)-oxolan-3-yl]pyrazol-3-yl]oxyphenyl]pyrimidin-5-yl]-2-fluoroethanamine]
17 | > 1000 nM |  | Cn1nc(-c2ccccn2)cc1Oc1cc(Cl)cnc1-c1ncc(CN)cn1 [compound 1351, [2-[5-chloro-3-(2-methyl-5-pyridin-2-ylpyrazol-3-yl)oxypyridin-2-yl]pyrimidin-5-yl]methanamine]
18 | < 10 nM |  | Cn1nc(-c2ccccn2)cc1Oc1cc(Cl)ccc1-c1ccc([C@@H](F)CN)cn1 [compound 1339, (2R)-2-[6-[4-chloro-2-(2-methyl-5-pyridin-2-ylpyrazol-3-yl)oxyphenyl]pyridin-3-yl]-2-fluoroethanamine]
19 | 10 to 1000 nM |  | COc1nc(-c2ccc(C#N)cc2Oc2cc(C)nc(N3CCOCC3)c2)ccc1CN [compound 1305, 4-[5-(aminomethyl)-6-methoxypyridin-2-yl]-3-(2-methyl-6-morpholin-4-ylpyridin-4-yl)oxybenzonitrile]
20 | > 1000 nM |  | Cn1nc(-c2ccccc2)nc1Oc1cc(Cl)ccc1-c1ncc(CCN)cn1 [compound 1365, 2-[2-[4-chloro-2-[(2-methyl-5-phenyl-1,2,4-triazol-3-yl)oxy]phenyl]pyrimidin-5-yl]ethanamine]
21 |  | < 10 nM | Cn1nc(-c2nccs2)cc1Oc1cc(C#N)ccc1-c1ncc(CN)cn1 [compound 592, 4-[5-(aminomethyl)pyrimidin-2-yl]-3-[2-methyl-5-(1,3-thiazol-2-yl)pyrazol-3-yl]oxybenzonitrile]
22 |  | < 10 nM | Cc1ccccc1-c1cn(Cc2cc(C#N)ccc2-c2ccc(CCN)cn2)cn1 [compound 1145, 4-[5-(2-aminoethyl)pyridin-2-yl]-3-[[4-(2-methylphenyl)imidazol-1-yl]methyl]benzonitrile]
23 |  | 10 to 1000 nM | Cc1cc(Oc2cc(C#N)ccc2-c2ccc(CCCN)cc2)cc(N2CCOCC2)n1 [compound 578, 4-[4-(3-aminopropyl)phenyl]-3-(2-methyl-6-morpholin-4-ylpyridin-4-yl)oxybenzonitrile]
